Patent EP4813989A1, “CRYSTAL, PHARMACEUTICAL COMPOSITION, PREPARATION METHOD THEREFOR, AND USE THEREOF” (TYK Medicines, Inc., priority 2023, dated 2025)

Columns and labels:
[1] = Solid form stability on standing (XRD/PLM); format: physicochemical; conditions: air-dried, open storage at room temperature, approximately 1 day
From the text: The resulting solid sample was subjected to a corresponding characterization test. An XRD pattern of the sample can be seen in FIG. 8.
A crystal form E sample was obtained by suspending and stirring the amorphous sample prepared in Example 2 in a 1,4-dioxane/n-heptane solvent system at room temperature. XRD results of the sample can be seen in FIG. 9. […] On this basis, it was inferred that the crystal form E was a metastable crystal form.
XRD results of the sample can be seen in FIG. 17.
XRD results of the sample can be seen in FIG. 20. TGA/DSC results can be seen in FIG. 21. […] An ^1H NMR spectrum of the crystal form D was obtained by a test in DMSO-d6, and no obvious solvent residue was observed. […] Based on nuclear magnetic resonance data and heating test results of the sample, it was inferred that the crystal form D was a hydrate crystal form.

[2] = Pharmacokinetic test in SD rats; format: in vivo; conditions: rats; for AUC(0-inf) / AUC(0-t) / Cmax / MRT last: 10 mg/kg; for Plasma concentration: 10 mg/kg p.o.
Protocol: Experimental animals: healthy adult SD rats, male, 6 in total, divided into two groups, with 3 rats per group, aged 6-8 weeks; and body weight approximately 200-300 g. The rats were fed in rat cages, and fasted (for at least 10 hours) with free access to water one day before the experiment. On the day of experiment, the rats were weighed and marked at the tail respectively. Blank blood samples were collected respectively before drug administration. The blood samples were collected via the tail vein. Drug administration method: intragastric gavage (p.o.): intragastric gavage with drug suspension; preparation of drug suspension: approximately 10 mg of test sample was accurately weighed, dissolved in 5% DMSO (calculated proportion), and vortexed with 10% solutol HS-15 and 85% saline to obtain a suspension with a concentration of 1.0 mg/mL; and the suspension was freshly prepared before use.
Sample collection: the rats were administered a single oral dose of 10mg/kg via intragastric gavage (p.o.). Timing was started immediately after the administration was completed, and blood samples were collected at 0.5, 1, 2, 4, 6, 8, 12 and 24 hours after administration. A volume of 0.1mL of whole blood was collected into EDTA-Na2 anticoagulant tubes, mixed by inverting 3-4 times, centrifuged at 10000 g for 5 minutes at 4°C to separate the plasma, and then the plasma was stored at -80 °C until testing. The blood samples were collected via the tail vein.
Sample preparation: 1) the samples were thawed, and 15 µL of unknown plasma samples before or after administration, standard series solutions, and single blank and double blank samples were respectively transferred into 1.5 mL centrifuge tubes. 2) 15 µL of protein precipitant (methanol) and 400 µL of internal standard solution (verapamil in methanol, approximately 10 ng/mL) were added to each sample sequentially, vortexed for 2 minutes, and then centrifuged at 4°C and 12000 rpm for 10 minutes. 3) The supernatant was collected for LC-MS/MS detection.
Analytical conditions: liquid chromatography conditions: liquid chromatography system: Shimadzu Nexera X2; chromatographic column: Agilent ZORBAX XDB-C18 3.5 (2.1 × 50 mm); column temperature: 35°C; mobile phase: A-5% acetonitrile (0.1% formic acid in water), B-95% acetonitrile (0.1% formic acid in water); injection volume: 3 µL; and
flow rate: 0.5 mL/min. Gradient elution was employed, and an elution program can be seen in the table below.
Mass spectrometry conditions: mass spectrometric analysis was carried out using an electrospray ionization (ESI) source in a positive ion mode with multiple reaction monitoring (MRM). The mass spectrometer ion source parameters and compound detection parameters can be seen in the table below.
PK parameter processing: pharmacokinetic (PK) parameters were calculated according to a plasma concentration from individual plasma concentration and corresponding sampling time data using Phoenix WinNonlin software with a non-compartmental model. (1) The PK parameters used for pharmacokinetic evaluation included: Cmax, AUC0-t, AUC0-∞, Tmax and t1/2.
(2) The parameters used for bioequivalence evaluation: Cmax, AUC0-t and AUC0-∞ were used for the bioequivalence evaluation.
Cmax: maximum plasma concentration measured within specified period, presented as measured value.
Tmax: time measured to reach maximum plasma concentration, presented as measured value. If the maximum value occurred at more than one time point, Tmax was defined as the first time point at which this value was observed.
AUC0-t: area under plasma concentration-time curve from 0 to last time point t.
AUC0-∞: area under plasma concentration-time curve from 0 to infinity. Ct was the last measured concentration, and λz was the terminal elimination rate constant. AUC0−∞ = AUC0−t + (Ct)/(λz)AUC0−∞ = AUC0−t + (Ct)/(λz) [formula]
t1/2: elimination or terminal half-life, estimated by ln2/λz.

[3] = rat, in vivo, po, intragastric gavage 10 mg/kg, Mean
[4] = rat, in vivo, po, intragastric gavage 10 mg/kg, No. 1
[5] = rat, in vivo, po, intragastric gavage 10 mg/kg, No. 2
[6] = rat, in vivo, po, intragastric gavage 10 mg/kg, No. 3

C[C@@H](Nc1ccn2ncc(C3=NOC(C)(C)N3)c2n1)c1cc(F)cc(F)c1F [crystal form E]
Solid form stability [1]: transformed into the crystal form A

C[C@@H](Nc1ccn2ncc(C3=NOC(C)(C)N3)c2n1)c1cc(F)cc(F)c1F [crystal form A]
AUC(0-inf) [2, 3]: 4800 ng·h/mL | AUC(0-t) [2, 3]: 4730 ng·h/mL | Cmax [2, 3]: 578 ng/mL | MRT last [2, 3]: 6.09 h | AUC(0-inf) [2, 4]: 4390 ng·h/mL | AUC(0-t) [2, 4]: 4320 ng·h/mL | Cmax [2, 4]: 652 ng/mL | MRT last [2, 4]: 6.09 h | AUC(0-inf) [2, 5]: 3580 ng·h/mL | AUC(0-t) [2, 5]: 3550 ng·h/mL | Cmax [2, 5]: 459 ng/mL | MRT last [2, 5]: 5.52 h | AUC(0-inf) [2, 6]: 6440 ng·h/mL | AUC(0-t) [2, 6]: 6330 ng·h/mL | Cmax [2, 6]: 623 ng/mL | MRT last [2, 6]: 6.66 h | Tmax [2, 4]: 4 h | Plasma concentration ([2]; 0.5 h, Mean): 224 ng/mL | Plasma concentration ([2]; 0.5 h, No. 1): 220 ng/mL | Plasma concentration ([2]; 0.5 h, No. 2): 168 ng/mL | Plasma concentration ([2]; 0.5 h, No. 3): 285 ng/mL | Plasma concentration ([2]; 1 h, Mean): 300 ng/mL | Plasma concentration ([2]; 1 h, No. 1): 170 ng/mL | Plasma concentration ([2]; 1 h, No. 2): 257 ng/mL | Plasma concentration ([2]; 1 h, No. 3): 474 ng/mL | Plasma concentration ([2]; 2 h, Mean): 457 ng/mL | Plasma concentration ([2]; 2 h, No. 1): 448 ng/mL | Plasma concentration ([2]; 2 h, No. 2): 453 ng/mL | Plasma concentration ([2]; 2 h, No. 3): 470 ng/mL | Plasma concentration ([2]; 4 h, Mean): 578 ng/mL | Plasma concentration ([2]; 4 h, No. 1): 652 ng/mL | Plasma concentration ([2]; 4 h, No. 2): 459 ng/mL | Plasma concentration ([2]; 4 h, No. 3): 623 ng/mL | Plasma concentration ([2]; 6 h, Mean): 395 ng/mL | Plasma concentration ([2]; 6 h, No. 1): 307 ng/mL | Plasma concentration ([2]; 6 h, No. 2): 277 ng/mL | Plasma concentration ([2]; 6 h, No. 3): 602 ng/mL | Plasma concentration ([2]; 8 h, Mean): 312 ng/mL | Plasma concentration ([2]; 8 h, No. 1): 240 ng/mL | Plasma concentration ([2]; 8 h, No. 2): 238 ng/mL | Plasma concentration ([2]; 8 h, No. 3): 459 ng/mL | Plasma concentration ([2]; 12 h, Mean): 93.8 ng/mL | Plasma concentration ([2]; 12 h, No. 1): 88.3 ng/mL | Plasma concentration ([2]; 12 h, No. 2): 47.2 ng/mL | Plasma concentration ([2]; 12 h, No. 3): 146 ng/mL | Plasma concentration ([2]; 24 h, Mean): 12.7 ng/mL | Plasma concentration ([2]; 24 h, No. 1): 11.6 ng/mL | Plasma concentration ([2]; 24 h, No. 2): 5.25 ng/mL | Plasma concentration ([2]; 24 h, No. 3): 21.3 ng/mL | HL_ ([2]; intragastric gavage 10 mg/kg, Mean): 3.51 h | HL_ ([2]; intragastric gavage 10 mg/kg, No. 1): 3.76 h | HL_ ([2]; intragastric gavage 10 mg/kg, No. 2): 3.07 h | HL_ ([2]; intragastric gavage 10 mg/kg, No. 3): 3.70 h
